Experimental data published in article PMC6173696, “Structural properties of a haemophore facilitate targeted elimination of the pathogen Porphyromonas gingivalis” (Nature Communications, 2018).

Key:
Type in all cases: binding
[1] = molecular target: T1, HusA L107A (Porphyromonas gingivalis, UniProt Q7MSY3, L107A); test: Tryptophan fluorescence quenching assay, HusA mutant L107A; conditions: haemin
T1 sequence (Q7MSY3 24-218 L107A): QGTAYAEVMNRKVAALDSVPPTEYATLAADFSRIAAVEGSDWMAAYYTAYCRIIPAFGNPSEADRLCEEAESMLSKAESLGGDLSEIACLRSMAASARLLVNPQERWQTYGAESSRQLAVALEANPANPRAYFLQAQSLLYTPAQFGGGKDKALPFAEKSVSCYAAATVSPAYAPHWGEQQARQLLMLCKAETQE

[2] = molecular target: T2, HusA L123N-V124N (Porphyromonas gingivalis, UniProt Q7MSY3, L123N/V124N); test: Tryptophan fluorescence quenching assay, HusA mutant L123N-V124N; conditions: haemin, mutant L123N-V124N
T2 sequence (Q7MSY3 24-218 L123N/V124N): T1 sequence (Q7MSY3 24-218 L107A)
Experimental: (§1) The quenching of intrinsic tryptophan fluorescence of HusA upon porphyrin additions was measured using a Carey Eclipse Fluorescence Spectrophotometer (Agilent) set to a photo multiplier effect (PME) of 850. A 5-mm path length quartz cuvette was used and all spectra were acquired at room temperature. Excitation was set to 295 nm and emission was measured from 300 nm to 500 nm using excitation/emission slit widths of 5 nm. Binding assays were performed at a protein concentration of 1 μM HusA in standard buffer at a working volume of 0.5 mL. […] The fluorescence quenching of HusA by PPIX was investigated in a similar manner with the following difference: the fluorescence intensities of ten 1 μM HusA samples were measured each with increasing amounts of PPIX after a 2-h incubation period to allow equilibrium to be reached. See Supplementary Methods for correction for inner filter effect and curve fitting. […]
(§2) Correction of inner filter effect and curve fitting in tryptophan fluorescence quenching assays The concentration of NATA was chosen such that the raw fluorescence intensity was similar to the 10 uM concentrations of HusA and mutants used. […] Fluorescence intensity was scaled with respect to the starting florescence and corrected for the inner filter effect. Fluorescence at 335 nm was used to fit binding curves. […]

[3] = molecular target: T3, HusA Y164A (Porphyromonas gingivalis, UniProt Q7MSY3, Y164A); test: Tryptophan fluorescence quenching assay, HusA mutant Y164A; conditions: haemin
T3 sequence (Q7MSY3 24-218 Y164A): T1 sequence (Q7MSY3 24-218 L107A)
Experimental: as §1, §2

[4] = molecular target: T4, HusA W130N (Porphyromonas gingivalis, UniProt Q7MSY3, W130N); test: Tryptophan fluorescence quenching assay, HusA mutant W130N; conditions: haemin
T4 sequence (Q7MSY3 24-218 W130N): T1 sequence (Q7MSY3 24-218 L107A)

[5] = molecular target: T5, HusA R121A (Porphyromonas gingivalis, UniProt Q7MSY3, R121A); test: Tryptophan fluorescence quenching assay, HusA mutant R121A; conditions: haemin
T5 sequence (Q7MSY3 24-218 R121A): T1 sequence (Q7MSY3 24-218 L107A)

[6] = molecular target: T6, HusA R139A (Porphyromonas gingivalis, UniProt Q7MSY3, R139A); test: Tryptophan fluorescence quenching assay, HusA mutant R139A; conditions: haemin
T6 sequence (Q7MSY3 24-218 R139A): T1 sequence (Q7MSY3 24-218 L107A)

[7] = molecular target: T7, HusA Y133A (Porphyromonas gingivalis, UniProt Q7MSY3, Y133A); test: Tryptophan fluorescence quenching assay, HusA mutant Y133A; conditions: haemin
T7 sequence (Q7MSY3 24-218 Y133A): T1 sequence (Q7MSY3 24-218 L107A)

## C=CC1=C(C)c2cc3[nH]c(cc4nc(cc5[nH]c(cc1n2)c(C)c5CCC(=O)O)C(CCC(=O)O)=C4C)c(C)c3C=C.[Fe+3] [haemin]
[1]
  Kd: 5.5 ± 0.3 µM
[2]
  Kd: 10.3 ± 0.7 µM
[3]
  Kd: 13 ± 0.7 µM
[4]
  Kd: 16 ± 1.8 µM
[5]
  Kd: 6.7 ± 1.2 µM
[6]
  Kd: 6.3 ± 1.4 µM
[7]
  Kd: 7.4 ± 0.6 µM
